Laboratory results published in patent US20250000881A1, “TREATMENT OF TREATMENT RESISTANT […] PSILOCYBIN” (COMPASS […], priority 2021, published 2025).

Tested on: adult subjects with TRD
Assay: Phase 2b trial in TRD: Sheehan Disability Scale (SDS)
Type: in vivo, human
Settings: 25 mg vs 1 mg, week 3
Experimental: Other objectives were to evaluate the effects of psilocybin on quality of life and wellbeing, functioning and associated disability, cognitive function, and anxiety compared to 1 mg psilocybin on: • (a) Quality of life in subject EuroQoL (EQ)-5 dimension-3 level scale (EQ-5D-3L) score change from Baseline to week 3. This will also be assessed at week 12. This assessment was not mandatory. • (b) Quality of life in caregiver EQ-5D-3L score change from Baseline to week 3. This was assessed at week 12. • (c) Functioning and associated disability in the Sheehan Disability Scale (SDS) score change from Baseline to week 3. This was also assessed at week 12. • (d) Cognitive function as measured by the Digit Symbol Substitution Test (DSST) score change from baseline to week 3. This was assessed at day 1 and week 12. • (e) Level of anxiety as measured using the change in Generalised Anxiety Disorder 7 item Scale (GAD-7) total score change from baseline to week 3. This was assessed at week 12. • (f) Subject determined level of depression as measured using the change in Quick Inventory of Depressive Symptomatology Self-Rated (QIDS-SR-16) total score from Baseline to week 3. […] This was assessed at week 12. • (h) To evaluate the impact of different psilocybin doses on real life functional activity estimated from passive data streams collected on a mobile app on subjects' mobile phones. […]

With CN(C)CCc1c[nH]c2cccc(OP(=O)(O)O)c12 [COMP360, psilocybin] the SDS treatment difference was −6.49.
